Measurements reported in patent US12116358B2, “Substituted indoles and methods of use thereof” (EPIZYME, INC., priority 2018, dated 2024).
Read-outs that look alike come from different tables or passages of the source.

How the values were obtained:
SETD2(1434-1711) = target: T1, SETD2(1434-1711) (Homo sapiens, UniProt Q9BYW2); assay: SETD2 (1434-1711) assay; format: biochemical; details: read-out: SETD2 (1434-1711)
T1 construct: SETD2 (1434-1711) Assay; catalogue N/A
T1 sequence (Q9BYW2 1434-1711): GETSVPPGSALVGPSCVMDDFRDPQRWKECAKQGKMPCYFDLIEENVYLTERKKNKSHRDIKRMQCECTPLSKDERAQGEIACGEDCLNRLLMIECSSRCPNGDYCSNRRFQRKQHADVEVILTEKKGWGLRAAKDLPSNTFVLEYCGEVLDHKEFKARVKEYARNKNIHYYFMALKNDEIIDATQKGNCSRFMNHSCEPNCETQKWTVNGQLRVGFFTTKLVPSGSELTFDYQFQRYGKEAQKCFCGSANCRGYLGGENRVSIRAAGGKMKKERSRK

H3K36me3 in A549 cells = assay: In-Cell Western (ICW) assay of SETD2 inhibitors (A549 assay); format: cell-based, human; details: A549 cells, read-out: SETD2 A549
Method in brief: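 H3K36me3 In-Cell Western: cells exposed to compound for 3 days at 4,000 cells/well, 37° C. DRAQ5 (1:1000) marked cell number, with 700/800-channel Licor read-out.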

| Structure (SMILES) | IC50 (SETD2(1434-1711)) | IC50 (H3K36me3 in A549 cells) | IC50 (H3K36me3 in A549 cells; Homo sapiens) |
| --- | --- | --- | --- |
| Cc1ccc(F)c2cc(C(=O)N[C@@H]3CCC[C@@H](N4CCn5cnnc5C4)C3)[nH]c12 [compound 861] | 1900 nM | > 2000 nM | – |
| CC(=O)N1CCC(N2CCCCC(NC(=O)c3cc4c(F)ccc(C)c4[nH]3)C2)CC1 (stereo not shown) [compound 867] | 400 nM | – | > 2000 nM |
| Cc1ccc(F)c2cc(C(=O)NC3CCCC(N4CCn5ncnc5C4)C3)[nH]c12 (stereo not shown) [compound 868] | 100 nM | 200 nM | – |
| Cc1ccc(F)c2cc(C(=O)N[C@@H]3CCC[C@@H](N4CCn5ncnc5C4)C3)[nH]c12 [compound 869] | 6600 nM | > 2000 nM | – |
| Cc1ccc(F)c2cc(C(=O)N[C@@H]3CCCC(N4CCC5(CCNC5=O)CC4)C3)[nH]c12 (stereo partly shown) [compound 874] | 400 nM | – | > 2000 nM |
| CC(=O)N1CCN(CC2CCCN(C(=O)c3cc4c(F)ccc(C)c4[nH]3)C2)CC1 (stereo not shown) [compound 877] | > 10000 nM | – | > 2000 nM |
| Cc1ccc(F)c2cc(C(=O)N[C@@H]3CCC[C@H](N4CCCC5(CCNC5=O)C4)C3)[nH]c12 (stereo partly shown) [compound 882] | 100 nM | – | 700 nM |
| CC(=O)N1CCN(C(=O)C2CCCN(C(=O)c3cc4c(F)ccc(C)c4[nH]3)C2)CC1 (stereo not shown) [compound 886] | 8900 nM | – | > 2000 nM |
| Cc1ccc(F)c2cc(C(=O)N[C@@H]3CCCC(N4CCC5(CC4)CNC(=O)N5)C3)[nH]c12 (stereo partly shown) [compound 890] | 100 nM | – | > 2000 nM |
| Cc1ccc(F)c2cc(C(=O)N[C@@H]3CCCC(N4CCNC(=O)CC4)C3)[nH]c12 (stereo partly shown) [compound 893] | 100 nM | – | 900 nM |
| Cc1ccc(F)c2cc(C(=O)N[C@@H]3CCCC(N4CCC5(CCC(=O)N5)CC4)C3)[nH]c12 (stereo partly shown) [compound 894] | 30 nM | – | 1400 nM |
| Cc1ccc(F)c2cc(C(=O)NC3CCCC(N4CCC5(CC4)COC(=O)N5)C3)[nH]c12 (stereo not shown) [compound 895] | 50 nM | – | 1500 nM |
| Cc1ccc(F)c2cc(C(=O)N[C@@H]3CCCC(N4CCC5(CC4)CNC(=O)C5)C3)[nH]c12 (stereo partly shown) [compound 896] | 100 nM | – | 1800 nM |
| Cc1ccc(F)c2cc(C(=O)N[C@@H]3CCC[C@H](N4CC5(CNC(=O)C5)C4)C3)[nH]c12 [compound 897] | 10 nM | – | 100 nM |
| Cc1ccc(F)c2cc(C(=O)N[C@@H]3CCC[C@@H](N4CC5(CNC(=O)C5)C4)C3)[nH]c12 [compound 898] | 4300 nM | – | > 2000 nM |
| Cc1ccc(F)c2cc(C(=O)N[C@@H]3CCC[C@@H](c4cccnc4)C3)[nH]c12 [compound 902] | 4200 nM | – | > 2000 nM |
| Cc1ccc(F)c2cc(C(=O)N[C@@H]3CCC[C@H](c4cccnc4)C3)[nH]c12 [compound 903] | 40 nM | – | 300 nM |
| Cc1ccc(F)c2cc(C(=O)N[C@H]3CCC[C@H](c4cccnc4)C3)[nH]c12 [compound 904] | 8100 nM | – | > 2000 nM |
| Cc1ccc(F)c2cc(C(=O)N[C@H]3CCC[C@@H](c4cccnc4)C3)[nH]c12 [compound 905] | 2900 nM | – | > 2000 nM |
| Cc1ccc(F)c2cc(C(=O)N[C@@H]3CCC[C@H](N4CCN(C)CC4=O)C3)[nH]c12 [compound 916] | 1000 nM | – | 1300 nM |
| Cc1ccc(F)c2cc(C(=O)N[C@@H]3CCC[C@@H](N4CCN(C)CC4=O)C3)[nH]c12 [compound 917] | > 10000 nM | – | > 2000 nM |
| Cc1ccc(F)c2cc(C(=O)N[C@@H]3CCC[C@H](N4CCN(C(=O)C5COC5)CC4)C3)[nH]c12 [compound 918] | 20 nM | – | 100 nM |
| Cc1ccc(F)c2cc(C(=O)N[C@@H]3CCC[C@@H](N4CCN(C(=O)C5COC5)CC4)C3)[nH]c12 [compound 919] | 900 nM | – | > 2000 nM |
| Cc1ccc(F)c2cc(C(=O)N[C@@H]3CCC[C@H](N4CCN(C5CCOC5)CC4)C3)[nH]c12 (stereo partly shown) [compound 924] | 100 nM | – | 600 nM |
| Cc1ccc(F)c2cc(C(=O)N[C@@H]3CCC[C@@H](N4CCN(C5CCOC5)CC4)C3)[nH]c12 (stereo partly shown) [compound 925] | 8800 nM | – | > 2000 nM |
| Cc1ccc(F)c2cc(C(=O)N[C@@H]3CCC[C@H](N4CCC5(CC4)CNC(=O)C5)C3)[nH]c12 [compound 928] | 30 nM | – | 900 nM |
| Cc1ccc(F)c2cc(C(=O)N[C@@H]3CCC[C@@H](N4CCC5(CC4)CNC(=O)C5)C3)[nH]c12 [compound 929] | 1700 nM | – | > 2000 nM |

The remaining lines, values ahead:

| IC50 (SETD2(1434-1711)) | IC50 (H3K36me3 in A549 cells) | IC50 (H3K36me3 in A549 cells; Homo sapiens) | Structure (SMILES) |
| --- | --- | --- | --- |
| 400 nM | > 2000 nM | – | CC(=O)N(C(C)C)C1CCN(C2CCC[C@@H](NC(=O)c3cc4c(F)ccc(C)c4[nH]3)C2)C1 (stereo partly shown) [compound 862] |
| 30 nM | 100 nM | – | Cc1ccc(F)c2cc(C(=O)NC3CCCC(N4CCN5C(=O)OCC5C4)C3)[nH]c12 (stereo not shown) [compound 865] |
| 900 nM | – | > 2000 nM | Cc1ccc(F)c2cc(C(=O)N[C@@H]3CCC[C@@H](N4CCN5C(=O)OCC5C4)C3)[nH]c12 (stereo partly shown) [compound 866] |
| 10 nM | – | 40 nM | Cc1ccc(F)c2cc(C(=O)N[C@@H]3CCC[C@H](N4CCN(C(=O)CO)CC4)C3)[nH]c12 [compound 870] |
| 100 nM | – | 1200 nM | CC(=O)N(CCO)C1CCN([C@H]2CCC[C@@H](NC(=O)c3cc4c(F)ccc(C)c4[nH]3)C2)C1 (stereo partly shown) [compound 872] |
| 1100 nM | – | > 2000 nM | CC(=O)N(CCO)C1CCN([C@@H]2CCC[C@@H](NC(=O)c3cc4c(F)ccc(C)c4[nH]3)C2)C1 (stereo partly shown) [compound 873] |
| 700 nM | – | > 2000 nM | CCOC(=O)N1CCC(N2CCC[C@@H](NC(=O)c3cc4c(F)ccc(C)c4[nH]3)C2)CC1 [compound 875] |
| > 10000 nM | – | > 2000 nM | CCOC(=O)N1CCC(N2CCC[C@H](NC(=O)c3cc4c(F)ccc(C)c4[nH]3)C2)CC1 [compound 876] |
| 20 nM | – | 100 nM | COCC(=O)N(C)C1CCN([C@H]2CCC[C@@H](NC(=O)c3cc4c(F)ccc(C)c4[nH]3)C2)C1 (stereo partly shown) [compound 880] |
| 100 nM | – | 200 nM | Cc1ccc(F)c2cc(C(=O)N[C@@H]3CCC[C@H](N4CCN(C)C(=O)C4C)C3)[nH]c12 (stereo partly shown) [compound 884] |
| 7600 nM | – | > 2000 nM | Cc1ccc(F)c2cc(C(=O)N[C@@H]3CCC[C@@H](N4CCN(C)C(=O)C4C)C3)[nH]c12 (stereo partly shown) [compound 885] |
| 100 nM | – | 300 nM | Cc1ccc(F)c2cc(C(=O)N[C@@H]3CCC[C@H](N4CCCN(C)C(=O)C4)C3)[nH]c12 [compound 887] |
| 2500 nM | – | > 2000 nM | CC(=O)N1CC2(C1)CN([C@@H]1CCC[C@@H](NC(=O)c3cc4c(F)ccc(C)c4[nH]3)C1)C2 [compound 889] |
| 900 nM | – | > 2000 nM | Cc1ccc(F)c2cc(C(=O)N[C@@H]3CCCN(C4CCN(C(=O)CN(C)C)CC4)C3)[nH]c12 [compound 891] |
| > 10000 nM | – | > 2000 nM | Cc1ccc(F)c2cc(C(=O)N[C@H]3CCCN(C4CCN(C(=O)CN(C)C)CC4)C3)[nH]c12 [compound 892] |
| 10 nM | – | 10 nM | CC(=O)N1CCN([C@H]2CCC[C@@H](NC(=O)c3cc4c(F)ccc(C)c4[nH]3)C2)CC1C (stereo partly shown) [compound 906] |
| 900 nM | – | 1700 nM | CC(=O)N1CCN([C@@H]2CCC[C@@H](NC(=O)c3cc4c(F)ccc(C)c4[nH]3)C2)CC1C (stereo partly shown) [compound 907] |
| 4 nM | – | 600 nM | Cc1ccc(F)c2cc(C(=O)N[C@@H]3CCC[C@H](N4CCC(N(C)C(=O)CN(C)C)C4)C3)[nH]c12 (stereo partly shown) [compound 908] |
| 4700 nM | – | > 2000 nM | Cc1ccc(F)c2cc(C(=O)N[C@@H]3CCC[C@@H](N4CCC(N(C)C(=O)CN(C)C)C4)C3)[nH]c12 (stereo partly shown) [compound 909] |
| 30 nM | – | 100 nM | Cc1ccc(F)c2cc(C(=O)N[C@@H]3CCC[C@H](N4CCC(N5CCCC5=O)C4)C3)[nH]c12 (stereo partly shown) [compound 910] |
| 1000 nM | – | > 2000 nM | Cc1ccc(F)c2cc(C(=O)N[C@@H]3CCC[C@@H](N4CCC(N5CCCC5=O)C4)C3)[nH]c12 (stereo partly shown) [compound 911] |
| 20 nM | 100 nM | – | CC(=O)N1C2CCC1CN(C1CCCC(NC(=O)c3cc4c(F)ccc(C)c4[nH]3)C1)C2 (stereo not shown) [compound 926] |
| 1700 nM | > 2000 nM | – | CC(=O)N1C2CCC1CN(C1CCCC(NC(=O)c3cc4c(F)ccc(C)c4[nH]3)C1)C2 (stereo not shown) [compound 927] |
| 4 nM | – | 10 nM | CC(=O)N1CCN([C@H]2CCC[C@@H](NC(=O)c3cc4c(F)ccc(C)c4[nH]3)C2)C[C@H]1C [compound 930] |
| 1100 nM | – | > 2000 nM | CC(=O)N1CCN([C@@H]2CCC[C@@H](NC(=O)c3cc4c(F)ccc(C)c4[nH]3)C2)C[C@H]1C [compound 931] |
| 700 nM | – | > 2000 nM | Cc1ccc(F)c2cc(C(=O)N[C@@H]3CCC[C@@H](N4CCNC(=O)CC4)C3)[nH]c12 [compound 933] |
| 10 nM | – | 100 nM | Cc1ccc(F)c2cc(C(=O)N[C@@H]3CCC[C@H](N4CCC(N(C)C(=O)CO)C4)C3)[nH]c12 (stereo partly shown) [compound 934] |
| 1900 nM | – | > 2000 nM | Cc1ccc(F)c2cc(C(=O)N[C@@H]3CCC[C@@H](N4CCC(N(C)C(=O)CO)C4)C3)[nH]c12 (stereo partly shown) [compound 935] |
| 100 nM | – | 500 nM | CC(=O)N1CC2CC1CN2[C@H]1CCC[C@@H](NC(=O)c2cc3c(F)ccc(C)c3[nH]2)C1 (stereo partly shown) [compound 936] |
